Experiments:
recombinant HlGST2 = molecular target: T1, recombinant HlGST2 (Haemaphysalis longicornis, UniProt A0A2Z6FA39); assay: CDNB conjugation kinetics with […] acaricide; assay type: biochemical; details: inhibitor, noncompetitive, 5 mM glutathione, CDNB 0.125-2 mM, pH 7.5, 25 °C
T1 construct: gene GST

recombinant HlGST = molecular target: T2, recombinant HlGST (Haemaphysalis longicornis, UniProt Q6JVN0); assay: CDNB conjugation kinetics with […] acaricide; assay type: biochemical; details: 5 mM glutathione, CDNB 0.125-2 mM, pH 7.5, 25 °C
T2 construct: gene GST
T2 sequence (Q6JVN0 1-223): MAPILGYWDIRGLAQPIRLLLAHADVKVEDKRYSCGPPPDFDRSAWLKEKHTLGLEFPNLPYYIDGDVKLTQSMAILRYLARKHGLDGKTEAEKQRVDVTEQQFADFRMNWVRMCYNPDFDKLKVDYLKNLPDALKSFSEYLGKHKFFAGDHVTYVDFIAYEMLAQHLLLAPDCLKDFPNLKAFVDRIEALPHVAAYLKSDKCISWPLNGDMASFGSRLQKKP

T1 sequence (A0A2Z6FA39 1-230): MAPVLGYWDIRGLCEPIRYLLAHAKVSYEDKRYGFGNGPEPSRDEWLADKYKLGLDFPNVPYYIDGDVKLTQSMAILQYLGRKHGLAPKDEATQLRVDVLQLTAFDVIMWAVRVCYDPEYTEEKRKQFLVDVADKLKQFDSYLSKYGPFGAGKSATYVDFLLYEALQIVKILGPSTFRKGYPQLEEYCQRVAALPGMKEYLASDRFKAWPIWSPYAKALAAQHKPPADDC

Row | Compound | CDNB conjugation kinetics with 0.1 mM acaricide (recombinant HlGST2) | CDNB conjugation kinetics with 0.1 mM acaricide (recombinant HlGST; apparent activator (lowers Km for CDNB)) | CDNB conjugation kinetics with 0.1 mM acaricide (recombinant HlGST; inhibitor, uncompetitive)
1 | CCOP(=S)(OCC)Oc1nc(Cl)c(Cl)cc1Cl [chlorpyrifos] | chlorpyrifos and cypermethrin showed noncompetitive inhibition of recombinant HlGST2 | – | –
2 | CCOP(=S)(OCC)Oc1ccc2c(C)c(Cl)c(=O)oc2c1 [coumaphos] | – | Coumaphos significantly decreased the Km of recombinant HlGST, indicating the apparent activation | –
3 | CC1(C)C(C=C(Cl)Cl)C1C(=O)OC(C#N)c1cccc(Oc2ccccc2)c1 (centres unmarked) [cypermethrin] | chlorpyrifos and cypermethrin showed noncompetitive inhibition of recombinant HlGST2 | – | flumethrin and cypermethrin showed uncompetitive inhibition of recombinant HlGST
4 | CC1(C)C(C=C(Cl)c2ccc(Cl)cc2)C1C(=O)OC(C#N)c1ccc(F)c(Oc2ccccc2)c1 (centres unmarked) [flumethrin] | – | – | flumethrin and cypermethrin showed uncompetitive inhibition of recombinant HlGST
